The values that follow come from PubChem BioAssay AID330 (DTP/NCI, 2004).

Values joined by “and” are separate entries in the source; they are usually repeats but may differ in a detail not shown here. Equal entries are not always repeated. Toxic doses and inconclusive results are not listed.

In this test the test system is P388 leukemia ip, CD2F1 mice, survival T/C. In words: NCI In Vivo Anticancer Drug Screen. Data for tumor model P388 Leukemia (intraperitoneal) in CD2F1 (CDF1) mice. Conditions: endpoint: median survival time, higher = longer survival. The gist of the method:
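Mice carrying the transplanted tumor received test compound or vehicle. Survival was recorded in each group, and the value is the treated-group measurement divided by that of the vehicle-treated control group.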

The mark [1] stands for this setting: dose: 50.0 mg/kg/injection, schedule: Q01DX009 (ip), vehicle: Klucel (hydroxypropylcellulose) (HPC).
The mark [2] stands for this setting: dose: 100.0 mg/kg/injection, schedule: Q01DX009 (ip), vehicle: Klucel (hydroxypropylcellulose) (HPC).
Where [3] appears, read: dose: 50.0 mg/kg/injection, schedule: Q01DX009 (ip), vehicle: saline with Tween-80.
Setting [4] is: dose: 100.0 mg/kg/injection, schedule: Q01DX009 (ip), vehicle: saline with Tween-80.
[5] abbreviates: dose: 200.0 mg/kg/injection, schedule: Q01DX009 (ip), vehicle: saline with Tween-80.
Where [6] appears, read: dose: 50.0 mg/kg/injection, schedule: Q01DX005 (ip), vehicle: saline with Tween-80.
The mark [7] stands for this setting: dose: 100.0 mg/kg/injection, schedule: Q01DX005 (ip), vehicle: saline with Tween-80.
[8] abbreviates: dose: 50.0 mg/kg/injection, schedule: Q01DX005 (ip), vehicle: Klucel (hydroxypropylcellulose) (HPC).
Setting [9] is: dose: 100.0 mg/kg/injection, schedule: Q01DX005 (ip), vehicle: Klucel (hydroxypropylcellulose) (HPC).
[10] abbreviates: dose: 200.0 mg/kg/injection, schedule: Q01DX005 (ip), vehicle: Klucel (hydroxypropylcellulose) (HPC).
Setting [11] is: dose: 60.0 mg/kg/injection, schedule: Q01DX005 (ip), vehicle: saline with Tween-80.
Setting [12] is: dose: 120.0 mg/kg/injection, schedule: Q01DX005 (ip), vehicle: saline with Tween-80.
The mark [13] stands for this setting: dose: 240.0 mg/kg/injection, schedule: Q01DX005 (ip), vehicle: saline with Tween-80.

With `N#CCCCOCCOCCOCC(O)C(O)COCCOCCOCCCC#N` (configuration not stated), the T/C was 95 % of control (dose: 25.0 mg/kg/injection, schedule: Q01DX005 (ip), vehicle: suspension in saline); 99 % of control (dose: 50.0 mg/kg/injection, schedule: Q01DX005 (ip), vehicle: suspension in saline); 96 % of control (dose: 100.0 mg/kg/injection, schedule: Q01DX005 (ip), vehicle: suspension in saline); 98 % of control (dose: 200.0 mg/kg/injection, schedule: Q01DX005 (ip), vehicle: suspension in saline).
For the molecule `COC1CCCC=C1[N+](=O)[O-]` (configuration not stated), the T/C is 108 % of control (dose: 6.25 mg/kg/injection, schedule: Q01DX005 (ip), vehicle: saline); 116 % of control (dose: 12.5 mg/kg/injection, schedule: Q01DX005 (ip), vehicle: saline); 115 % of control (dose: 25.0 mg/kg/injection, schedule: Q01DX005 (ip), vehicle: saline).
Consider `CCCCCCCCCCCCCCCC(=O)Nc1ncc([N+](=O)[O-])s1`, for which the T/C is 86 % of control under setting [1]; 96 % of control under setting [2]; 96 % of control (dose: 200.0 mg/kg/injection, schedule: Q01DX009 (ip), vehicle: Klucel (hydroxypropylcellulose) (HPC)).
For the molecule `COc1cccc2c1C(=O)c1c(O)c3c(c(O)c1C2=O)CC(O)(C1(C)OCCO1)CC3O` (configuration not stated), the T/C was 99 % of control (dose: 3.13 mg/kg/injection, schedule: Q04DX003 (ip), vehicle: distilled water + Tween-80); 99 % of control (dose: 6.25 mg/kg/injection, schedule: Q04DX003 (ip), vehicle: distilled water + Tween-80); 99 % of control (dose: 12.5 mg/kg/injection, schedule: Q04DX003 (ip), vehicle: distilled water + Tween-80); 96 % of control (dose: 25.0 mg/kg/injection, schedule: Q04DX003 (ip), vehicle: distilled water + Tween-80); 98 % of control (dose: 50.0 mg/kg/injection, schedule: Q04DX003 (ip), vehicle: distilled water + Tween-80); 98 % of control (dose: 100.0 mg/kg/injection, schedule: Q04DX003 (ip), vehicle: distilled water + Tween-80). Further, the T/C by setting is: (dose: 200.0 mg/kg/injection, schedule: Q04DX003 (ip), vehicle: distilled water + Tween-80) 106 % of control; (dose: 400.0 mg/kg/injection, schedule: Q04DX003 (ip), vehicle: distilled water + Tween-80) 106 % of control.
Consider `COC(=O)C(Br)C(Br)c1ccccc1` (configuration not stated), for which the T/C (dose: 25.0 mg/kg/injection, schedule: Q01DX009 (ip), vehicle: saline) is 104 % of control and 111 % of control; the T/C under setting [3] is 110 % of control; the T/C (dose: 50.0 mg/kg/injection, schedule: Q01DX009 (ip), vehicle: saline) was 119 % of control; the T/C under setting [4] is 91 % of control; the T/C (dose: 100.0 mg/kg/injection, schedule: Q01DX009 (ip), vehicle: saline) is 120 % of control; the T/C (dose: 132.0 mg/kg/injection, schedule: Q01DX009 (ip), vehicle: saline with Tween-80) was 113 % of control. The T/C reads like this: under setting [5], 107 % of control and 113 % of control; (dose: 200.0 mg/kg/injection, schedule: Q01DX009 (ip), vehicle: saline) 122 % of control; (dose: 300.0 mg/kg/injection, schedule: Q01DX009 (ip), vehicle: saline with Tween-80) 95 % of control.
On to `[N-]=[N+]=NCN1C(=O)C2C3C=CC(C2C1=O)C1C2C(=O)N(CN=[N+]=[N-])C(=O)C2C31` (configuration not stated), for which the T/C was 106 % of control (dose: 25.0 mg/kg/injection, schedule: Q01DX009 (ip), vehicle: saline with Tween-80); 108 % of control under setting [3]; 100 % of control under setting [4]; 115 % of control under setting [5].
Regarding `O=C1C(c2[nH]c3cccc(Cl)c3c2O)=Nc2cccc(Cl)c21`, the T/C runs as follows: under setting [6], 100 % of control; under setting [7], 104 % of control; (dose: 200.0 mg/kg/injection, schedule: Q01DX005 (ip), vehicle: saline with Tween-80) 109 % of control.
For the molecule `CC(=O)NC1=C(O)C2C(c3ccc(Cl)cc3)C(C#N)C(=O)N2C1=O` (configuration not stated), the T/C reads like this: (dose: 100.0 mg/kg/injection, schedule: Q01DX001 (ip), vehicle: saline) 100 % of control; (dose: 200.0 mg/kg/injection, schedule: Q01DX001 (ip), vehicle: saline) 103 % of control; (dose: 400.0 mg/kg/injection, schedule: Q01DX001 (ip), vehicle: saline) 98 % of control.
In the case of `Cc1ccc(S(=O)(=O)C(Cl)Cl)cc1`, the T/C is, setting by setting: (dose: 50.0 mg/kg/injection, schedule: Q04DX003 (ip), vehicle: saline with Tween-80) 100 % of control and 90 % of control and 93 % of control; (dose: 100.0 mg/kg/injection, schedule: Q04DX003 (ip), vehicle: saline with Tween-80) 111 % of control and 118 % of control and 93 % of control; (dose: 200.0 mg/kg/injection, schedule: Q04DX003 (ip), vehicle: saline with Tween-80) 104 % of control and 93 % of control; (dose: 400.0 mg/kg/injection, schedule: Q04DX003 (ip), vehicle: saline with Tween-80) 102 % of control.
Turning to `COc1cc(CO)c(Br)c(OC)c1OC`, the T/C is, setting by setting: (dose: 100.0 mg/kg/injection, schedule: Q01DX001 (ip), vehicle: Klucel (hydroxypropylcellulose) (HPC)) 100 % of control; (dose: 200.0 mg/kg/injection, schedule: Q01DX001 (ip), vehicle: Klucel (hydroxypropylcellulose) (HPC)) 100 % of control; (dose: 400.0 mg/kg/injection, schedule: Q01DX001 (ip), vehicle: Klucel (hydroxypropylcellulose) (HPC)) 106 % of control.
Take `CCOc1cc2c(cc1C(C)c1ccc(OC)c(C)c1)OCO2` (configuration not stated): the T/C reads like this: (dose: 12.5 mg/kg/injection, schedule: Q01DX005 (ip), vehicle: Klucel (hydroxypropylcellulose) (HPC)) 92 % of control; (dose: 25.0 mg/kg/injection, schedule: Q01DX005 (ip), vehicle: Klucel (hydroxypropylcellulose) (HPC)) 91 % of control; under setting [8], 102 % of control and 111 % of control; under setting [9], 101 % of control and 112 % of control; under setting [10], 101 % of control and 114 % of control.
With `COc1cc2c[n+](C)c3c(c2cc1OC)Cc1cc2c(cc1-3)OCO2`, the T/C runs as follows: (dose: 25.0 mg/kg/injection, schedule: Q01DX005 (ip), vehicle: saline with Tween-80) 151 % of control; (dose: 50.0 mg/kg/injection, schedule: Q01DX005 (ip), vehicle: saline) 174 % of control; under setting [7], 168 % of control.
On to `NC1C=NNC1=O` (configuration not stated), for which the T/C under setting [11] was 110 % of control, the T/C under setting [12] was 116 % of control and the T/C under setting [13] was 116 % of control.
As for `O=C1Nc2ccccc2NC(=O)C1(O)O`, the T/C is, setting by setting: under setting [8], 100 % of control; under setting [9], 101 % of control; under setting [10], 101 % of control.
With `COc1ccc(C)cc1C(=C=C=C=C(c1cc(C)ccc1OC)c1ccccc1OCc1ccccc1)c1ccccc1OCc1ccccc1`, the T/C runs as follows: (dose: 25.0 mg/kg/injection, schedule: Q01DX009 (ip), vehicle: Klucel (hydroxypropylcellulose) (HPC)) 101 % of control; under setting [1], 100 % of control; under setting [2], 93 % of control.
Turning to `Cc1cc2nc(CC(=O)c3ccccc3)c(=O)[nH]c2cc1C`, the T/C under setting [11] is 90 % of control, the T/C under setting [12] was 90 % of control and the T/C under setting [13] was 87 % of control.
Turning to `CCCC(CC)(C(=O)Nc1ccc2nc(C)cc(N)c2c1)C(=O)Nc1ccc2nc(C)cc(N)c2c1`, the T/C reads like this: under setting [6], 91 % of control; under setting [7], 93 % of control.
Regarding `CCCNC(=O)OCc1c(COC(=O)NCCC)c(-c2ccc(Cl)c(Cl)c2)n2c1CCC2`, the T/C is 120 % of control (dose: 12.5 mg/kg/injection, schedule: Q01DX009 (ip), vehicle: distilled water + Tween-80); 154 % of control (dose: 20.0 mg/kg/injection, schedule: Q01DX009 (ip), vehicle: distilled water + Tween-80); 154 % of control and 172 % of control (dose: 40.0 mg/kg/injection, schedule: Q01DX009 (ip), vehicle: distilled water + Tween-80); 166 % of control (dose: 50.0 mg/kg/injection, schedule: Q01DX009 (ip), vehicle: distilled water + Tween-80); 102 % of control and 91 % of control (dose: 80.0 mg/kg/injection, schedule: Q01DX009 (ip), vehicle: distilled water + Tween-80); 95 % of control (dose: 100.0 mg/kg/injection, schedule: Q01DX009 (ip), vehicle: distilled water + Tween-80).
